pEC50: −log10 of the molar value. Read-outs that look alike come from different tables or passages of the source. Where a SMILES comes first, the peptide text is derived from it.
Experiments:
[1] = Test for proteolytic degradation of the peptide compounds in ovine serum; assay type: in vitro ADME, ewes of the Ile de France breed; details: for remaining at 3 h, 50 μM: female, Ile de France, sheep
Experimental: In order to carry out this test, blood was collected from the jugular vein of ewes of the Ile de France breed, and centrifuged. The supernatant (serum) was stored at −20° C. until use.
The degradation in this serum of the various peptide compounds in accordance with the invention and of the comparative peptide compounds is monitored over time. To this effect, each peptide compound to be analyzed and the internal calibrant (L-phenylalaninol) are dissolved in milliQ water (0.5 mM and 6.6 mM, respectively). The commercial protease inhibitor cocktail (Sigma, ref. P8340) is supplied in solution in DMSO.
The serum and the stock solutions of peptide compounds are preheated at 39° C. for 30 minutes. Each solution of peptide compound (50 μl, i.e. a final concentration in the serum of 50 μM) and the solution of internal calibrant (25 μl) are mixed with 425 μl of serum and incubated at 39° C. The proteolytic degradation kinetics of the compounds are monitored by taking a sample, at various given times, of 75 μl of the solution, which are diluted with 150 μL of acetonitrile in order to precipitate the serum proteins. The suspension obtained is centrifuged at 14 000 revolutions/min for 10 min at 4° C.
The amount of peptide compound intact after incubation is determined by integration of the area of the peak, using L-phenylalaninol as internal calibrant. It is expressed as % of the area of the peak at time t=0.
The value corresponding to 100% of intact peptide compound is obtained by mixing 420 μl of serum, 5 μl of the inhibitor cocktail and 25 μl of the phenylalaninol solution, followed by 50 μl of peptide compound, and then by immediately treating the resulting solution according to the protocol described above.

plasma LH concentration = assay: In vivo activity test: plasma LH concentration in ewes after injection of the peptide compound; design: species or system ewes of the Ile de France breed; details: 5 nmol/ewe intravenous
Experimental: The tests were carried out on ewes of the Ile de France breed, either in the anestrus period for the comparative compounds Comp.1 and Comp.3, or in the estrus period for the comparative compound Comp.1 and for the compounds in accordance with the invention C1, C4 and C6. The ewes used in the estrus period were pretreated with a vaginal sponge containing 20 mg of fluorogestone acetate (Chronogest CR sponge, Intervet) in order to block the secretion of LH and to stimulate a luteal phase.
Five days after the insertion of the sponge (for the animals in the estrus period) or the day before the test (for the animals in the anestrus period), a catheter was inserted into the jugular vein of the animal. On the day of the test, the peptide compound to be tested was injected into the catheter, at the desired dose (5 nmol/ewe), diluted in 1 ml of physiological solution. Physiological saline containing heparin (3 ml) was injected immediately after the peptide compound in order to rinse the catheter and to carry all of the compound into the animal's bloodstream.
A negative control (T) consisting of physiological solution alone was also carried out.
Before and following the injection of the test compound, blood samples were taken at variable intervals between 10 min and 1 h, for a period of between 3 h and 30 h.
The blood samples were centrifuged, and the plasma was stored at −20° C. until it was used to measure the LH concentration, according to an RIA method described in the literature (Caraty et al., 2007).
The tests were carried out on ewes of the Ile de France breed in the anestrus period, in the same way as above with reference to the 1st experiment (without any treatment with progesterone). In particular, for all the animals, the day before the test, a catheter was inserted into the jugular vein of the animal. On the day of the test, the peptide compound to be tested was injected into the catheter, at the desired dose (5 nmol/ewe), diluted in 1 ml of physiological solution.
The tests were carried out on ewes of the Ile de France breed in the anestrus period, as indicated above with reference to the 1st experiment (without any treatment with progesterone). In particular, for all the animals, the day before the test, a catheter was inserted into the jugular vein of the animal. On the day of the test, the peptide compound to be tested was injected into the catheter, at the desired dose, diluted in 1 ml of physiological solution. For each compound, the following three doses were tested: 1 nmol/ewe, 5 nmol/ewe and 15 nmol/ewe. […]
Before and following the injection of the test compound, blood samples were taken at variable intervals between 10 min and 1 h, for a period of 10 h.
The blood samples were centrifuged, and the plasma was stored at −20° C. until it was used to measure the LH concentration, according to the RIA method described in the literature (Caraty et al., 2007).

human KISS1R receptor = molecular target: T1, human KISS1R receptor (Homo sapiens, UniProt Q969F8); assay: Intracellular calcium mobilization test in HEK293A cells expressing human KISS1R; assay type: cell-based
T1 construct: expressed in transfected cells
Excerpt: In order to carry out the in vitro tests for the activity of the peptide compounds in accordance with the invention and the comparative compounds, the HEK293A cell line (ATCC, American Type Culture Collection, Manassas, Va., USA) was stably transfected with the human KISS1R receptor (Genbank accession number: NM_032551). The pcDNA3.1 vector (Invitrogen, Cergy Pontoise, France), into which the sequence of human KISS1R has been inserted with a 5′ HA tag at position 957-2150 bp, was used for the transfection. The transfection and the selection of the clones were carried out as described in the literature (Mancini et al. 2009, and Invitrogen website).
In order to verify the agonist activity and to measure the EC50 of the peptide compounds according to the invention, the following protocol was carried out.
HEK293A cells expressing the human KISS1R receptor were seeded into a 96-well plate (μClear® black plate) at the concentration of 40 000 cells/well, and placed in an incubator at 37° C. After 48 hours, the medium was changed and the cells were incubated with the fluorescent dye Fluo-4NW, according to the instructions of the manufacturer (Molecular Probe).
After having measured the basal fluorescence, 5 μl of the 20× solution containing the test compound were added to each well (containing 95 μl) so as to obtain the desired concentration. The variations in fluorescence were recorded every 7 seconds for 5-7 minutes with a plate reader (PolarStar Optima, BMG Labtech). Activity-concentration curves were generated using the GraphPad Prism 5 software, and the EC50 of each compound was calculated by adjusting the curve to a sigmoid.

LH peak / ovulation = details: cited from earlier work
[2] = intravenous, ewes at the end of the follicular phase

T1 sequence (Q969F8 whole entry): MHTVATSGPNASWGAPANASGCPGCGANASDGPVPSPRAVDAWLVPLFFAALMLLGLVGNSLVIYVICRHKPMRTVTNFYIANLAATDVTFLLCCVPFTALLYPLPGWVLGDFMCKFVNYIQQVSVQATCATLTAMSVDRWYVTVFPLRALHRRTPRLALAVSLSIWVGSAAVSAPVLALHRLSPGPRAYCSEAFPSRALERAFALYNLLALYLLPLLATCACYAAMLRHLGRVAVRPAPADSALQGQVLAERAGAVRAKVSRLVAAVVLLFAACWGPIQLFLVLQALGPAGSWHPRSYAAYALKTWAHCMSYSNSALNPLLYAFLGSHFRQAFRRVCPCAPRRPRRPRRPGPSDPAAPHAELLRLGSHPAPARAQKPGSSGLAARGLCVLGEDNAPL

With CNC(=N)NCCC[C@H](NC(=O)[C@H](CC(C)C)n1cc(CNC(=O)[C@H](Cc2ccccc2)NC(=O)[C@@H](NC(=O)[C@H](CC(N)=O)NC(=O)[C@@H](Cc2c[nH]c3ccccc23)NC(=O)[C@@H](Cc2ccc(O)cc2)NC(C)=O)[C@@H](C)O)nn1)C(=O)N[C@@H](Cc1c[nH]c2ccccc12)C(N)=O [Compound C6, Ac-DTyr-DTrp-Asn-Thr-Phe-GlyΨ[Tz]Leu-Arg(Me)-Trp-NH2] (HELM PEPTIDE1{[ac].[dY].[dW].N.T.F.[CC(C)C[C@@H](C(=O)[*:2])n1cc(CN[*:1])nn1].[CNC(=N)NCCC[C@H](N[*:1])C(=O)[*:2]].W.[am]}$$$$V2.0) the remaining at 3 h, 50 μM ([1]; serum) was 50%, the “increase in the plasma concentration of LH (% of Comp.1 maximum stimulation)” value (plasma LH concentration; 1st experiment, ewes in the estrus period, FIG. 4) was “more active than the comparative compounds Comp.1 and Comp.3” and the pEC50 (human KISS1R receptor; HEK293A cells expressing human KISS1R, Fluo-4NW, read-out: EC50, intracellular calcium mobilization of cells expressing human KISS1R (Table 2)) was 11.00.
In the case of “KP10: decapeptide kisspeptin-10, endogenous KISS1R ligand; species form not stated for the cited ewe studies”, the “induction of an LH peak” value (LH peak / ovulation; [2]) is given as “capable of inducing an LH peak”, the synchronization of ovulations (LH peak / ovulation; [2]) is given as “synchronized to within one hour” and the “time from LH peak to ovulations” value (LH peak / ovulation; [2]) is given as 21 h. The “reactivation of the gonadotropic axis and ovulation” value (LH peak / ovulation; prolonged infusion, period of sexual rest (seasonal anestrus)) was “capable of reactivating the gonadotropic axis and inducing ovulation”.
For CC(=O)N[C@@H](Cc1ccc(O)cc1)C(=O)N[C@@H](CC(N)=O)C(=O)N[C@@H](Cc1c[nH]c2ccccc12)C(=O)N[C@@H](CC(N)=O)C(=O)N[C@@H](CO)C(=O)N[C@@H](Cc1ccccc1)C(=O)NCc1cn([C@@H](CC(C)C)C(=O)N[C@@H](CCCNC(=N)N)C(=O)N[C@@H](Cc2ccc(O)cc2)C(N)=O)nn1 [Compound C2, Ac-Tyr-Asn-Trp-Asn-Ser-Phe-GlyΨ[Tz]Leu-Arg-Tyr-NH2] (HELM PEPTIDE1{[ac].Y.N.W.N.S.F.[CC(C)C[C@@H](C(=O)[*:2])n1cc(CN[*:1])nn1].R.Y.[am]}$$$$V2.0), the “lifetime in ovine serum (in words)” value [1] was “clearly prolonged in comparison with that of the comparative peptide compound Comp.3”, the remaining at 3 h, 50 μM ([1]; serum) was 46% and the “total increase in the plasma LH concentration (AUC) over 9 hours” value (plasma LH concentration; 2nd experiment, ewes in the anestrus period, FIG. 7) was “significantly more active than the comparative compounds”. For the same compound, the “duration of action (LH concentration over time)” value (plasma LH concentration; 2nd experiment, ewes in the anestrus period, FIGS. 6a-6d) was “sustained for longer over time than the comparative compounds Comp.1 and Comp.3”.
For “Ac-YNWNSFGLRY-NH2 [Comp. 3, reference compound]”, the remaining at 3 h, 50 μM ([1]; ovine serum, 39° C., 50 μM, 3 h, % of the area of the HPLC peak at time t = 0, read-out: % of peptide intact after 3 h of incubation in the serum) was 11%, the “efficiency and duration of the elevation of the plasma LH concentration” value (plasma LH concentration; 1st experiment, ewes in the anestrus period, FIG. 3, versus Comp.1) was “only minimally increases” and the “human KISS1R-stimulating power (in words)” value (human KISS1R receptor; calcium mobilization, compared with Comp.1) was “more powerful than Comp.1 (mKP10) in vitro”.

Reference: patent US9884891B2, “KISS1R receptor agonist compounds and use thereof for inducing ovulation in mammals” (INSTITUT NATIONAL DE LA RECHERCHE AGRONOMIQUE, priority 2013, dated 2018)
